According to ChEMBL document CHEMBL5653631, “A Potent and Selective ULK1 Inhibitor Suppresses Autophagy and Sensitizes Cancer Cells to Nutrient Stress” (iScience, 2018):

Key:
[1] = target: T1, Mitogen-activated protein kinase 13 (Homo sapiens) (UniProt O15264); assay: Inhibition of human recombinant p38delta at 40 nM in presence of ATP by radiometric assay relative to control
T1 sequence (whole entry): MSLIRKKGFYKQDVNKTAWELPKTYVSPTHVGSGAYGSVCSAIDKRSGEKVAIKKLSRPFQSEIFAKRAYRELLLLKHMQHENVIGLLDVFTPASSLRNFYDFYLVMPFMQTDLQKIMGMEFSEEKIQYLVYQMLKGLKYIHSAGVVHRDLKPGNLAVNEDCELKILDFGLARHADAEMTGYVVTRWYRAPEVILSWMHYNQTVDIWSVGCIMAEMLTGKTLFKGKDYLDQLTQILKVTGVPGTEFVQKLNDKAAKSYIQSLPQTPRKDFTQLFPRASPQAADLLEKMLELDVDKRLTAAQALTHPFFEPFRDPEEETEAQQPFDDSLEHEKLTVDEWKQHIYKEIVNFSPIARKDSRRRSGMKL

[2] = target: T2, Serine/threonine-protein kinase tousled-like 1 (Homo sapiens) (UniProt Q9UKI8); assay: Inhibition of human recombinant TLK1 at 40 nM in presence of ATP by radiometric assay relative to control
T2 sequence (whole entry): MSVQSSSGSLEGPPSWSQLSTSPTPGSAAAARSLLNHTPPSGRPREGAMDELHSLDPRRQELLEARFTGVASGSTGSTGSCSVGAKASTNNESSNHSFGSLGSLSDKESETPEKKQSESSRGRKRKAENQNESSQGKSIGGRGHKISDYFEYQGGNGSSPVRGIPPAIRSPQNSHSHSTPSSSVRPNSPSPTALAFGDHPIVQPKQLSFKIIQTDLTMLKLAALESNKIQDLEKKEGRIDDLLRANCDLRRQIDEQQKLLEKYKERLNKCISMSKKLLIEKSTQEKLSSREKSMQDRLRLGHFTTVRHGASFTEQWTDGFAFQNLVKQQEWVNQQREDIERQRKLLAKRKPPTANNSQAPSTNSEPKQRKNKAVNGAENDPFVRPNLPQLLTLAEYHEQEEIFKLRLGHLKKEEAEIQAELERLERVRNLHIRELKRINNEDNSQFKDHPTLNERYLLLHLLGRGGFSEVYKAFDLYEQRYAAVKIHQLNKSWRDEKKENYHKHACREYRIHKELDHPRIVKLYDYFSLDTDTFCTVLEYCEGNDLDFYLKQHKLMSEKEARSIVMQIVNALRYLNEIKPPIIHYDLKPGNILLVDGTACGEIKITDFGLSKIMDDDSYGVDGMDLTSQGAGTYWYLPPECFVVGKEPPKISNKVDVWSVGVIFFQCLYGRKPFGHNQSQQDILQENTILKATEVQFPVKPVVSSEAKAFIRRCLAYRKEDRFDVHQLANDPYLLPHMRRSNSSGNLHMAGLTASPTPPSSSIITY

[3] = target: Ribosomal protein S6 kinase alpha-1 (Homo sapiens) (UniProt Q15418); assay: Inhibition of human recombinant RSK1 at 40 nM related to control ULK1
[4] = target: Proto-oncogene tyrosine-protein kinase Src (Homo sapiens) (UniProt P12931); assay: Inhibition of human recombinant SRC at 40 nM related to control ULK1
[5] = target: Receptor-interacting serine/threonine-protein kinase 2 (Homo sapiens) (UniProt O43353); assay: Inhibition of human recombinant RIPK2 at 15 nM in presence of ATP by radiometric assay relative to control
[6] = target: Serine/threonine-protein kinase B-raf (Homo sapiens) (UniProt P15056); assay: Inhibition of human recombinant BRAF at 15 nM related to control ULK1
[7] = target: T3, Mitogen-activated protein kinase kinase kinase 2 (Homo sapiens) (UniProt Q9Y2U5); assay: Inhibition of human recombinant MAP3K2 at 15 nM related to control ULK1
T3 sequence (whole entry): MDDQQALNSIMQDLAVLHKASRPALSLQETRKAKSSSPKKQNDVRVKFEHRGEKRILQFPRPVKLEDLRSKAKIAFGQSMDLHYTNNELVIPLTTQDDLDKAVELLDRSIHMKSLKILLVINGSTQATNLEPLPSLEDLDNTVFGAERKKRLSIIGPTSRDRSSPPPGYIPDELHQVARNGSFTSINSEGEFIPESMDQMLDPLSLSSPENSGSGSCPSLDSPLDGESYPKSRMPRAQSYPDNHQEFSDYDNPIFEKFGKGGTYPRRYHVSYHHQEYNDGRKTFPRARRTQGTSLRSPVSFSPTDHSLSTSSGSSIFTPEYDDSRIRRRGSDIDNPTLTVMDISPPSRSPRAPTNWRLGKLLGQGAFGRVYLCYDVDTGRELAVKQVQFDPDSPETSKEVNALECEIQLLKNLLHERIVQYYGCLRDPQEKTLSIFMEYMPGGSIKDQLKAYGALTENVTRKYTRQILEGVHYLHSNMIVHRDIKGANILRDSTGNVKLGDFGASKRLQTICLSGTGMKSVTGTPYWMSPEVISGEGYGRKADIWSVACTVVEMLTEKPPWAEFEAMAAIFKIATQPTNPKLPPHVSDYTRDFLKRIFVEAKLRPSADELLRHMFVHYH

[8] = target: Ribosomal protein S6 kinase alpha-5 (Homo sapiens) (UniProt O75582); assay: Inhibition of human recombinant MSK1 at 15 nM related to control ULK1
[9] = target: Protein kinase C alpha type (Homo sapiens) (UniProt P17252); assay: Inhibition of human recombinant PKCa at 15 nM related to control ULK1

Chain of Serine/threonine-protein kinase B-raf (Homo sapiens) (P15056 whole entry): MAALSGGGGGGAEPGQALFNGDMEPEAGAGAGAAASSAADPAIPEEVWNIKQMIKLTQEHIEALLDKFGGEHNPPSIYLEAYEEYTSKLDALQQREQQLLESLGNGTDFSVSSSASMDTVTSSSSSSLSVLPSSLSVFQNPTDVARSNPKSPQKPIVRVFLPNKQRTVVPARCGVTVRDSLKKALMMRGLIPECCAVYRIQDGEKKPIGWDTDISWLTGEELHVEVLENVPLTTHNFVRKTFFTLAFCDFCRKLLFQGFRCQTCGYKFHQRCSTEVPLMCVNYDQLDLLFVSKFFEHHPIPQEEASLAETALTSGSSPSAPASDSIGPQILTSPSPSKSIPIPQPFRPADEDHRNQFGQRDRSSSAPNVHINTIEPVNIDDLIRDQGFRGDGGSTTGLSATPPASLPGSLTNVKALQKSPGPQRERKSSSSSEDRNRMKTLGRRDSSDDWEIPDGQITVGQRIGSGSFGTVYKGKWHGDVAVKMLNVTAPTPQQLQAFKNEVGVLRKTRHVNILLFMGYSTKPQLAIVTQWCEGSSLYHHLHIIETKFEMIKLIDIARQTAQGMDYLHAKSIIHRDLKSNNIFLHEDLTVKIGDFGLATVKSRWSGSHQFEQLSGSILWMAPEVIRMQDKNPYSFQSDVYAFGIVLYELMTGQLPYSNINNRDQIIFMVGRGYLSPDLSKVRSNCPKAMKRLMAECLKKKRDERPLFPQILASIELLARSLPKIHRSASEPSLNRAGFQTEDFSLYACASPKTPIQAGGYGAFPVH
Chain of Receptor-interacting serine/threonine-protein kinase 2 (Homo sapiens) (O43353 whole entry): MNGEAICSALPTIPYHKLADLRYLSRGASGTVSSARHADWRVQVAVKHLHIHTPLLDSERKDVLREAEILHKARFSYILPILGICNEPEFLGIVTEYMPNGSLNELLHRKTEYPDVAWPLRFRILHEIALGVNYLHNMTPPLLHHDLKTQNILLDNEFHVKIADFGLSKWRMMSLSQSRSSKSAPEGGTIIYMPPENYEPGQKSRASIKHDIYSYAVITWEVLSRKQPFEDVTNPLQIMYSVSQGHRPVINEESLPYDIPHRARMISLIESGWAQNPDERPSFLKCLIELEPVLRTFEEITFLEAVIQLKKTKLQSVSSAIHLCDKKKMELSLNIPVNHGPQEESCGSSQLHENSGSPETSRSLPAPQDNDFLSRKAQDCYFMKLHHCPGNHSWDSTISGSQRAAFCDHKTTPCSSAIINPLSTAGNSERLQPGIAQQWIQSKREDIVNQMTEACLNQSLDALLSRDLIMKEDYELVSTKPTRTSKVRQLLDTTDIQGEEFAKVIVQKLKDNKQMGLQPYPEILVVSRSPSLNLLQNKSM
Chain of Proto-oncogene tyrosine-protein kinase Src (Homo sapiens) (P12931 2-536 limits assumed): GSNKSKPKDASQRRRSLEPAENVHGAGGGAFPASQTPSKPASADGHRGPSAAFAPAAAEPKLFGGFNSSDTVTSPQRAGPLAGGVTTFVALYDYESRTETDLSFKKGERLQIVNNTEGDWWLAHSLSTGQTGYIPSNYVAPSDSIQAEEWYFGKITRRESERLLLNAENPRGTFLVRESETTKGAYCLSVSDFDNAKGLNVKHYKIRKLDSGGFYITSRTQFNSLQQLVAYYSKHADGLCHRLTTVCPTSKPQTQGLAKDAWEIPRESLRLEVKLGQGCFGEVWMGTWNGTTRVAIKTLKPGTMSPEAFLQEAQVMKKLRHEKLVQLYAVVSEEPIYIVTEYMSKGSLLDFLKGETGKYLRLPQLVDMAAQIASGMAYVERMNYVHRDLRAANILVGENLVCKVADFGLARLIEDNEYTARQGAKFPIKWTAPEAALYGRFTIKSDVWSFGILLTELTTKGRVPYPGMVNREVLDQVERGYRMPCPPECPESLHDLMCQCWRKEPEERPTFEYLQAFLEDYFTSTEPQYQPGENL
Chain of Ribosomal protein S6 kinase alpha-5 (Homo sapiens) (O75582 whole entry, looked up): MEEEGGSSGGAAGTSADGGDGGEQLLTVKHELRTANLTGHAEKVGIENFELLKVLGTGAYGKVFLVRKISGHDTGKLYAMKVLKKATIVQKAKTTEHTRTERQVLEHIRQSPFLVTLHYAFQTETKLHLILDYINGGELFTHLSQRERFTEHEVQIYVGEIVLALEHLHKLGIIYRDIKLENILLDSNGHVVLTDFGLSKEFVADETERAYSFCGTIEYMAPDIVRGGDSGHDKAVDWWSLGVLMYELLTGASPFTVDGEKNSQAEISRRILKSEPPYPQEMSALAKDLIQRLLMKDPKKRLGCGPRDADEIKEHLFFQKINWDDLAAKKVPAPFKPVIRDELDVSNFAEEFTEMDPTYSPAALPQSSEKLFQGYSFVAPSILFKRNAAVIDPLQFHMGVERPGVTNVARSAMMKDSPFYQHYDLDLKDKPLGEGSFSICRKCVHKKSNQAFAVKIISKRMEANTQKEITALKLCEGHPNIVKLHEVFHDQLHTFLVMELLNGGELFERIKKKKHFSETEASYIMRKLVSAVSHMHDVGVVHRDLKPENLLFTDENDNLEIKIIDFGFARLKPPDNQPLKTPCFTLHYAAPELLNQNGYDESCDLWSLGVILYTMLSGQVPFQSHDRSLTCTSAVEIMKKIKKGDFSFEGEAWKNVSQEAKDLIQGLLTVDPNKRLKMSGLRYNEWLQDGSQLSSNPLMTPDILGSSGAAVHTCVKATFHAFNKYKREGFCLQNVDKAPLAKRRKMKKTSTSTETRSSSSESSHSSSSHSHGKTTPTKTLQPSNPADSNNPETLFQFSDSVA
Chain of Ribosomal protein S6 kinase alpha-1 (Homo sapiens) (Q15418 whole entry): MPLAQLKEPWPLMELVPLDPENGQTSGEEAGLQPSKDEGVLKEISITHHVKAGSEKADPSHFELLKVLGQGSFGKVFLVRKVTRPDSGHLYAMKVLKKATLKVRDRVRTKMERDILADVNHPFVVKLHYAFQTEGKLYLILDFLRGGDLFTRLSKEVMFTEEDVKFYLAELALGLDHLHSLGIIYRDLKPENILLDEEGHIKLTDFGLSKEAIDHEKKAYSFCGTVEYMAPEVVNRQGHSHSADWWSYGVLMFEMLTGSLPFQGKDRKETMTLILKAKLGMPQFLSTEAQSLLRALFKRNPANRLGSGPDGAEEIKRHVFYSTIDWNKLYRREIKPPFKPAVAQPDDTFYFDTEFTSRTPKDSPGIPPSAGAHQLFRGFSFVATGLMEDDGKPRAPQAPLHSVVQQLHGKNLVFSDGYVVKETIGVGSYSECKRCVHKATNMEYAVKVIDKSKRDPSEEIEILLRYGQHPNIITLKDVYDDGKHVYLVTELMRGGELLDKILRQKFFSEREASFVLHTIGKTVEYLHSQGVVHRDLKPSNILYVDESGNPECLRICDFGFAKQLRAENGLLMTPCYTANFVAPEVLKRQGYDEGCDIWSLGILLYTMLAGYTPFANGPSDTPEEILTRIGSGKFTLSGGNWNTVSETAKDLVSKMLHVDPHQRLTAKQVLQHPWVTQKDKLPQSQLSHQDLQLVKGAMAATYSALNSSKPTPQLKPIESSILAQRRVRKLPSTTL

Row | inhibition [1] [%] | inhibition [2] [%] | fold change (FC) [3] | fold change (FC) [4] | inhibition [5] [%] | fold change (FC) [6] | fold change (FC) [7] | fold change (FC) [8] | fold change (FC) [9] | SMILES
1 | 12 | 0 | 0.11 | 0.03 |  |  |  |  |  | O=C(N[C@@H](C1CC1)C(F)(F)F)c1cc(-c2cnn3cc(-c4ccc(F)cc4)cnc23)cs1
2 |  |  |  |  | 10 | 0.13 | 0.03 | 0.02 | 0.08 | CC(C)[C@H](NC(=O)c1cc(-c2cnn3cc(-c4ccc(OCCN5CCCCC5)cc4)cnc23)cs1)C(F)(F)F
